Structures can show the parent of a compound that is named as a salt. ± gives the standard deviation of the averaged measurements.
What was measured:
[1] = system: 409B2 hiPSC (iCRISPR Cas9, FRMD7 editing); experiment: cell survival relative to solvent control (fold (ratio to mock)); higher = more surviving cells
Method: (§1)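 Subset screen of 55 drugs tested at 5 concentrations around the effective screening dose, in 409B2 iCRISPR Cas9 hiPSCs editing FRMD7 with a ssDNA donor. Drugs were applied for 24 h. Viability was read by resazurin and editing outcomes by amplicon sequencing (HDR, NHEJ <2 bp microhomology, MMEJ ≥2 bp microhomology). Values are relative to solvent mock controls; two biological replicates.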

[2] = system: 409B2 hiPSC (iCRISPR Cas9, FRMD7 editing); experiment: HDR (precise edit) frequency relative to solvent control (fold (ratio to mock)); higher = more homology-directed repair outcomes
Method: as §1

[3] = system: 409B2 hiPSC (iCRISPR Cas9, FRMD7 editing); experiment: MMEJ-attributed deletion frequency relative to solvent control (fold (ratio to mock)); higher = more MMEJ outcomes
Method: as §1

[4] = system: 409B2 hiPSC (iCRISPR Cas9, FRMD7 editing); experiment: NHEJ-attributed indel frequency relative to solvent control (fold (ratio to mock)); higher = more NHEJ outcomes
Method: as §1

SMILES | cell survival ([1]; 2000 nM) | cell survival ([1]; 5000 nM) | cell survival ([1]; 10000 nM) | cell survival ([1]; 20000 nM) | cell survival ([1]; 50000 nM) | HDR ([2]; 2000 nM) | HDR ([2]; 5000 nM) | HDR ([2]; 10000 nM) | HDR ([2]; 20000 nM) | HDR ([2]; 50000 nM) | MMEJ-attributed deletion frequency ([3]; 2000 nM) | MMEJ-attributed deletion frequency ([3]; 5000 nM) | MMEJ-attributed deletion frequency ([3]; 10000 nM) | MMEJ-attributed deletion frequency ([3]; 20000 nM) | MMEJ-attributed deletion frequency ([3]; 50000 nM) | NHEJ-attributed indel frequency ([4]; 2000 nM) | NHEJ-attributed indel frequency ([4]; 5000 nM) | NHEJ-attributed indel frequency ([4]; 10000 nM) | NHEJ-attributed indel frequency ([4]; 20000 nM) | NHEJ-attributed indel frequency ([4]; 50000 nM) | other results
CN(C)C(=O)Oc1cccc([N+](C)(C)C)c1 [Hodostin] (in DMSO) | 0.969 | 1.28 | 1 | 1.14 | 1.29 | 1.13 ± 0.068 | 1.1 ± 0.087 | 1.05 ± 0.15 | 1.15 ± 0.044 | 1.24 ± 0.054 | 0.943 ± 0.1 | 0.965 ± 0.13 | 0.922 ± 0.014 | 0.944 ± 0.085 | 1.05 ± 0.12 | 0.983 ± 0.013 | 0.992 ± 0.024 | 0.996 ± 0.04 | 0.9928 ± 0.0066 | 0.992 ± 0.029 | –
OC[C@H]1O[C@@H](c2ccc(F)c(Cc3cc4ccccc4s3)c2)[C@H](O)[C@@H](O)[C@@H]1O [Ipragliflozin] (in DMSO) | – | – | – | – | – | – | – | – | – | – | – | – | – | – | – | – | – | – | – | – | cell survival ([1]; 20 nM): 0.951; cell survival ([1]; 50 nM): 1.11; cell survival ([1]; 100 nM): 0.915; cell survival ([1]; 200 nM): 1.12; cell survival ([1]; 500 nM): 0.95; HDR ([2]; 20 nM): 1.09 ± 0.029; HDR ([2]; 50 nM): 1 ± 0.037; HDR ([2]; 100 nM): 0.984 ± 0.064; HDR ([2]; 200 nM): 1.02 ± 0.07; HDR ([2]; 500 nM): 1.05 ± 0.067; MMEJ-attributed deletion frequency ([3]; 20 nM): 0.982 ± 0.092; MMEJ-attributed deletion frequency ([3]; 50 nM): 0.909 ± 0.09; MMEJ-attributed deletion frequency ([3]; 100 nM): 0.913 ± 0.041; MMEJ-attributed deletion frequency ([3]; 200 nM): 0.94 ± 0.11; MMEJ-attributed deletion frequency ([3]; 500 nM): 1.07 ± 0.08; NHEJ-attributed indel frequency ([4]; 20 nM): 1 ± 0.038; NHEJ-attributed indel frequency ([4]; 50 nM): 0.9974 ± 0.0051; NHEJ-attributed indel frequency ([4]; 100 nM): 1.005 ± 0.0019; NHEJ-attributed indel frequency ([4]; 200 nM): 1.01 ± 0.012; NHEJ-attributed indel frequency ([4]; 500 nM): 0.995 ± 0.032
CCc1c2c(nc3ccc(OC(=O)N4CCC(N5CCCCC5)CC4)cc13)-c1cc3c(c(=O)n1C2)COC(=O)[C@]3(O)CC [Irinotecan HCl Trihydrate] (in DMSO) | 0.00496 | 0.00337 | – | – | – | 0.16683 ± 7e-05 | 0.149 ± 0.016 | – | – | – | 0.541 ± 0.16 | 0.575 ± 0.049 | – | – | – | 0.439 ± 0.01 | 0.434 ± 0.028 | – | – | – | cell survival ([1]; 200 nM): 0.618; cell survival ([1]; 500 nM): 0.158; cell survival ([1]; 1000 nM): 0.0216; HDR ([2]; 200 nM): 1.097 ± 0.0069; HDR ([2]; 500 nM): 0.954 ± 0.14; HDR ([2]; 1000 nM): 0.662 ± 0.22; MMEJ-attributed deletion frequency ([3]; 200 nM): 0.853 ± 0.043; MMEJ-attributed deletion frequency ([3]; 500 nM): 0.688 ± 0.013; MMEJ-attributed deletion frequency ([3]; 1000 nM): 0.566 ± 0.31; NHEJ-attributed indel frequency ([4]; 200 nM): 0.914 ± 0.024; NHEJ-attributed indel frequency ([4]; 500 nM): 0.694 ± 0.021; NHEJ-attributed indel frequency ([4]; 1000 nM): 0.617 ± 0.21
O=[N+]([O-])O[C@@H]1CO[C@H]2[C@@H]1OC[C@@H]2O [Isosorbide 5-mononitrate] (in DMSO) | 0.898 | 1.39 | 1.19 | 1.15 | 1.36 | 1.08 ± 0.25 | 1.14 ± 0.04 | 1.14 ± 0.051 | 1.07 ± 0.14 | 1.22 ± 0.11 | 0.904 ± 0.25 | 0.993 ± 0.058 | 0.983 ± 0.057 | 0.994 ± 0.012 | 0.955 ± 0.048 | 0.899 ± 0.036 | 0.9787 ± 0.0053 | 0.967 ± 0.016 | 0.988 ± 0.033 | 0.983 ± 0.013 | –
CC(CCc1ccccc1)NCC(O)c1ccc(O)c(C(N)=O)c1 (stereo not given) [Labetalol HCl] (in DMSO) | 0.953 | 1.39 | 1.08 | 1.14 | 1.15 | 1.05 ± 0.063 | 0.878 ± 0.059 | 0.834 ± 0.025 | 0.757 ± 0.049 | 0.756 ± 0.028 | 1.04 ± 0.027 | 0.975 ± 0.13 | 1.13 ± 0.15 | 1.08 ± 0.034 | 1.25 ± 0.049 | 0.988 ± 0.029 | 1.02 ± 0.0051 | 1.05 ± 0.018 | 1.093 ± 0.0077 | 1.0876 ± 0.00036 | –

Source: the supplement of paper PMC12698765
